Like-named read-outs stand apart in the source and are kept apart here.
What was measured:
Format in all cases: cell-based, mouse
[1] = RealTime-Glo MT cell viability assay; details: mouse, serum-starved C2C12 cells, 24 h, serum-starved C2C12, read-out: Cell viability, percent of luminescence in control untreated cells
Experimental: (§1) To first determine how these novel compounds effect the health of C2C12 cells and to establish the range of subtoxic concentrations for future studies, cell viability assays were carried out. Serum-starved C2C12 cells were exposed to increasing concentrations (0.01–1000 µM) of SY-LB-35 and SY-LB-57 for 24 h. Exposure to Triton X-100 (125 µM) is toxic to cells and was used as a negative control for cell viability. Following the 24-h exposure period, the MT Cell viability substrate was added to the cultures. Only viable cells can reduce the substrate and, thereby, generate a luminescent signal. Any decrease in luminescence was considered an indication of cell death or toxicity.
(§2) C2C12 cells (100 µL) were seeded in a 96-well plate at 5 × 10^5 cells/mL and incubated overnight in complete growth media to achieve 80% confluency followed by serum-starvation for 16–18 h.
(§3) Next, reagents from the RealTime-Glo™ MT Cell Viability Assay Kit (Promega, Madison, WI, USA) were diluted in SS medium and used according to manufacturer’s protocol. Cellular luminescence was measured using the FilterMax F5 Multi-mode Microplate Reader (Molecular Devices, San Jose, CA, USA). Data from three independent experiments with individual experiments carried out in triplicate was determined and reported as a percentage of control.

C2C12 cells [2] = assay: RealTime-Glo MT cell viability assay; details: for Increase in cell viability over control / Decrease in cell viability compared with control: 24 h; for IC50: non-linear regression, read-out: IC50 (concentration at which cell viability is reduced by 50%)
Experimental: as §1, §2, §3

C2C12 cells [3] = assay: Live cell count (acridine orange/propidium iodide); details: 24 h; for Average increase in number of cells compared to control: average over 0.01–10 µM
Experimental: For the concentrations tested, SY-LB-35 increased the number of cells by an average of approximately 40% (Fig. 4A) and SY-LB-57 enhanced cell numbers to an average increase of 70% compared to the control (Fig. 4B). […] Moreover, both novel compounds induce a substantial proliferative effect in C2C12 cells.
C2C12 mouse myoblast cells (ATCC®, Manassas, VA, USA) were maintained in complete growth media (DMEM/10% FBS/1X Penicillin/Streptomycin/Glutamine solution (PSG)) at 37 °C in 5% CO2. DMEM media (Dulbecco’s Modified Eagle’s Medium with high glucose and L-glutamine and without sodium pyruvate) was from Caisson Labs (Smithfield, UT, USA). FBS was from Atlanta Biologicals (Flowery Branch, GA, USA). To determine the cell concentration, 18 µL cell suspension was mixed with 2 µL Acridine orange/Propidium iodide stain (Logos Biosystems, Annandale, VA, USA). Next, the cell concentration and percent viability were determined from 10 µL stained cells using the Luna-FL™ Dual Fluorescence Cell Counter from Logos Biosystems. For cell counts following treatment with SY-LB-35 or SY-LB-57, C2C12 cells (500 µL) were seeded into 24-well plates at 1 × 10^5 cells/mL, grown to 80% confluency, serum-starved for 16–18 h using Serum-Starvation Medium (SS medium: DMEM/1X Penicillin/Streptomycin solution (PS)) and treated for 24 h with the novel compounds. The treated cells were then collected by trypsinization, pelleted at 2000 rpm for 3 min at RT, resuspended and counted.

p-ERK = assay: Western blot of p-ERK; details: 0.01–10 µM, 15 min
Experimental: (§4) Whole cell lysates were prepared from the treated cultures for Western blot analysis.
(§5) C2C12 cells (3 mL) were seeded into 35 mm dishes at 7.5 × 10^4 cells/mL in complete growth medium, incubated to reach 80% confluence and serum-starved for 16–18 h. […] Thereafter, the cultures were washed with ice-cold 1X TBS for 2 min. Lysis Buffer (Cell Signaling Technology, Danvers, MA, USA) supplemented with 1 mM PMSF (phenylmethylsulphonyl fluoride) was added to the cultures and whole cell lysates were prepared.
(§6) Laemmli sample buffer (4X) was added to the whole cell lysates (20 µg) to a final concentration of 1X and heated at 100 °C for 5 min. The samples were immediately cooled on ice for 5 min and centrifuged at 9500 rpm for 2 min at RT. The samples and the Precision Plus Protein Standard (5 µL; Bio-Rad, Hercules, CA, USA) were loaded on 12% SDS polyacrylamide gels. […] Finally, the blots were developed using SuperSignal ™ West Femto HRP Substrate solutions (Thermo Scientific, Rockford, IL, USA) and analysed using the Omega Lum™ G Imaging System (San Francisco, CA, USA). Quantification of chemiluminescent signals was carried out using ImageJ (Image Processing and Analysis in Java 1.8.0_112).

p-p38 = assay: Western blot of p-p38; details: 0.01–10 µM, 15 min
Experimental: as §4, §5, §6

[4] = tested on: type I BMP receptor-dependent p-Smad; assay: Western blot of p-Smad in presence or absence of Dorsomorphin; details: 1 µM, 30 min; for p-Smad level, DM(+): Dorsomorphin 10 µM pretreatment 1 h; for p-Smad level, DM(−): without Dorsomorphin
Experimental: Total whole cell lysates were prepared and used for Western blot analysis of Smad phosphorylation using anti-p-Smad antibodies.
as §5
Laemmli sample buffer (4X) was added to the whole cell lysates (20 µg) to a final concentration of 1X and heated at 100 °C for 5 min. The samples were immediately cooled on ice for 5 min and centrifuged at 9500 rpm for 2 min at RT. The samples and the Precision Plus Protein Standard (5 µL; Bio-Rad, Hercules, CA, USA) were loaded on 12% SDS polyacrylamide gels. Protein was separated using the Bio-Rad Mini Protean II Gel Electrophoresis System at 135 V. Meanwhile, 0.2 µm nitrocellulose membranes were pre-incubated in cold 1X Transfer Buffer (10 mM Tris/2.5 mM glycine/20% methanol) for at least 30 min. Next, the separated proteins were transferred at 100 V onto the pre-equilibrated nitrocellulose membranes for 1 h in Transfer Buffer, followed by blocking in 5% BSA/0.1% Tween 20/1X TBS for 30 min. The membranes were incubated overnight at 4 °C with the desired primary rabbit monoclonal antibody (p-Smad1/5(S463/465)/9(S465/467), Smad1 (D5907) XP®, p-Akt (Ser473) (D9E) XP®, or Akt (pan) (C67E7), p-SAPK/JNK (Thr183/Tyr185), SAPK/JNK, β-actin (Cell Signaling Technologies, Danvers, MA, USA)) or rabbit polyclonal antibody (phospho-PI3 Kinase p85 (Tyr458)/p55 (Tyr199) antibody (Cell Signaling Technologies, Danvers, MA, USA), p-p38 MAPK, p38 MAPK, p-ERK1, ERK1/2) (Abclonal, Woburn, MA, USA)) in Antibody Dilution Buffer (1% BSA/0.1% Tween 20/1X TBS) and then washed with 1X TBST (0.1% Tween 20/1X TBS) three times for 15 min. HRP-conjugated Goat Anti-Rabbit IgG secondary antibody (Santa Cruz Biotechnology, Inc., Dallas, TX, USA) in Antibody Dilution Buffer was added to the membranes for 1 h at RT followed by three 15-min washes with 1X TBST. Finally, the blots were developed using SuperSignal ™ West Femto HRP Substrate solutions (Thermo Scientific, Rockford, IL, USA) and analysed using the Omega Lum™ G Imaging System (San Francisco, CA, USA). Quantification of chemiluminescent signals was carried out using ImageJ (Image Processing and Analysis in Java 1.8.0_112).

Row | Structure (SMILES) | viability at 24 h, 0.01 µM [1] [%] | viability at 24 h, 0.1 µM [1] [%] | viability at 24 h, 1 µM [1] [%] | viability at 24 h, 10 µM [1] [%] | viability at 24 h, 100 µM [1] [%] | viability at 24 h, 1 mM [1] [%] | IC50 (C2C12 cells [2]; C2C12, 24 h) [µM] | IC50 (C2C12 cells [2]; Mus musculus, C2C12, 24 h) [µM] | Cell number (C2C12 cells [3]; 0.01 µM) | Cell number (C2C12 cells [3]; 0.1 µM) | Cell number (C2C12 cells [3]; 1 µM) | Cell number (C2C12 cells [3]; 10 µM) | Average increase in number of cells compared to control (C2C12 cells [3]) | p-ERK level (p-ERK) | p-p38 level (p-p38) | p-Smad level, DM(+) [4] [%] | p-Smad level, DM(−) [4] [%] | further results
1 | Oc1ccc2[nH]c(-c3nc4ccccc4[nH]3)cc2c1 [SY-LB-35] | 241 | 244 | 218 | 137 | 69 | 13 | 401 | 401 | 6.8 × 10^5 cells | 6.6 × 10^5 cells | 6.8 × 10^5 cells | 6.4 × 10^5 cells | approximately 40% | stimulated increases | stimulated increases | 112 | 315 | Increase in cell viability over control (C2C12 cells [2]; 0.01 µM): 150 % over control; Increase in cell viability over control (C2C12 cells [2]; 0.1 µM): 150 % over control; Increase in cell viability over control (C2C12 cells [2]; 1 µM): 120 % over control; Decrease in cell viability compared with control (C2C12 cells [2]; 100 µM): 30 % decrease; Decrease in cell viability compared with control (C2C12 cells [2]; 1 mM): 80 % decrease
2 | COc1ccc2[nH]c(-c3nc4ccccc4[nH]3)cc2c1 [SY-LB-57] | 390 | 394 | 301 | 251 | 151 | 20 | 808 | 808 | 7.4 × 10^5 cells | 6.5 × 10^5 cells | 7.2 × 10^5 cells | 6.0 × 10^5 cells | 70% | stimulated increases | stimulated increases | 111 | 172 | Non-toxic / safe concentrations (C2C12 cells [2]; C2C12, 24 h): ≤ 10 µM
